Laboratory results: patent US7358236B1 (priority 2002, dated 2008)
Read-outs that look alike come from different tables or passages of the source.

Tests used:
heart tissue = test: Histopathology of heart tissue after single dose VTA, and protective effect of propranolol; conditions: for Heart histopathology with propranolol pretreatment: 2 mg/kg Propranolol Hydrochloride 1 hour prior to CA-4DP 100 mg/kg
[1] = rat, in vivo
tumor blood flow = conditions: cited from earlier work

Compound: CC(C)NCC(O)COc1cccc2ccccc12 (racemic) [propranolol, 1-[ispropylamino]3-[1-napthyloxy]-2-propanol hydrocholoride]
- MABP (antihypertensive co-administered with CA-4DP 30 mg/kg i.p., 1 hour after CA-4DP dosing): 80.2 mmHg
- Heart Rate (antihypertensive co-administered with CA-4DP 30 mg/kg i.p., 1 hour post CA-4DP dosing): 248.5 bpm
- Heart histopathology with propranolol pretreatment (heart tissue; 6 or 24 hours post-treatment): no abnormal CA-4DP-related histopathology
- Heart histopathology with propranolol pretreatment (heart tissue; 4 days): cardiac tissue remained healthy

Compound: Combretastatin A-4 Disodium Phosphate Prodrug [CA-4DP]
- MABP stabilized level [1]: 110 mmHg
- Heart Rate (rat, in vivo): 265.6 bpm
- Increase of MABP versus control animals (rat, in vivo, ip, 30 mg/kg): 72%
- MABP (rat, in vivo, ip, 30 mg/kg): 107.9 mmHg
- Blood flow in vital tissues (heart, kidney, small intestine) (tumor blood flow; 100 mg/kg, rat): maintained at normal levels
- Reduction in tumor blood flow (tumor blood flow; 100 mg/kg, rat): 100 fold
- Mean Arterial Blood Pressure change (tumor blood flow; almost immediately following administration): substantial but transient increase
- Histopathological changes in the heart (heart tissue; CA-4DP 100 mg/kg i.v. single dose, overall): necrosis and degeneration of cardiac cells in some localized areas
- Histopathological changes in the heart (heart tissue; CA-4DP 100 mg/kg i.v., at 6 hours): some blood vessels in the heart tissue were observed dilated
- Histopathological changes in the heart (heart tissue; CA-4DP 100 mg/kg i.v., at 24 hours): Inflammation cells infiltrated the heart tissue
- Histopathological changes in the heart (heart tissue; CA-4DP 100 mg/kg i.v., at 4 days): loss of striation, fragmentation, a manifestation of necrosis and degeneration
